Experiments:
Experiment in all cases: whole plant or invertebrate
Assay type in all cases: in vivo
[1] = test system: vetch aphid (Megoura viciae); conditions: foliar, 120 h, sprayed broad bean leaf disks, adult aphids, 5 days, read-out: mortality in comparison with untreated controls
Procedure: For evaluating control of vetch aphid (Megoura viciae) through contact or systemic means the test unit consisted of 24-well-microtiter plates containing broad bean leaf disks.
The compounds were formulated using a solution containing 75% v/v water and 25% v/v DMSO. Different concentrations of formulated compounds were sprayed onto the leaf disks at 2.5 μl, using a custom built micro atomizer, at two replications.
After application, the leaf disks were air-dried and 5 to 8 adult aphids were placed on the leaf disks inside the microtiter plate wells. The aphids were then allowed to suck on the treated leaf disks and were incubated at about 23±1° C. and about 50±5% relative humidity for 5 days. Aphid mortality and fecundity were then visually assessed.

[2] = test system: green peach aphid (Myzus persicae); conditions: 72 h, in aphid diet under artificial membrane, adult aphids, 3 days, read-out: mortality in comparison with untreated controls
Text: For evaluating control of green peach aphid (Myzus persicae) through systemic means the test unit consisted of 96-well-microtiter plates containing liquid artificial diet under an artificial membrane.
The compounds were formulated using a solution containing 75% v/v water and 25% v/v DMSO. Different concentrations of formulated compounds were pipetted into the aphid diet, using a custom built pipetter, at two replications.
After application, 5 to 8 adult aphids were placed on the artificial membrane inside the microtiter plate wells. The aphids were then allowed to suck on the treated aphid diet and were incubated at about 23±1° C. and about 50±5% relative humidity for 3 days. Aphid mortality and fecundity was then visually assessed.

[3] = test system: Cotton Aphid (Aphis gossypii); conditions: 120 h, infested cotton plants sprayed, after 5 days, read-out: mortality in comparison with untreated controls
Procedure: (§1) The active compounds were formulated in cyclohexanone as a 10′ 000 ppm solution supplied in 1.3 ml ABgene® tubes. These tubes were inserted into an automated electrostatic sprayer equipped with an atomizing nozzle and they served as stock solutions for which lower dilutions were made in 1:1 (vol:vol) water:aceton. A nonionic surfactant (Kinetic®) was included in the solution at a volume of 0.01% (v/v).
Cotton plants at the cotyledon stage were infested with aphids prior to treatment by placing a heavily infested leaf from the main aphid colony on top of each cotyledon. Aphids were allowed to transfer overnight to accomplish an infestation of 80-100 aphids per plant and the host leaf was removed. The infested plants were then sprayed by an automated electrostatic plant sprayer equipped with an atomizing spray nozzle. The plants were dried in the sprayer fume hood, removed from the sprayer, and then maintained in a growth room under fluorescent lighting in a 24-hr photoperiod at 25° C. and 20-40% relative humidity. Aphid mortality on the treated plants, relative to mortality on untreated control plants, was determined after 5 days.

[4] = test system: Cowpea Aphid (Aphis craccivora); conditions: colonized cowpea plants sprayed, population reduction assessed after 24, 72 and 120 hours, read-out: mortality in comparison with untreated controls
Procedure: The active compound was dissolved at the desired concentration in a mixture of 1:1 (vol:vol) distilled water:acetone. The test solution was prepared at the day of use. Potted cowpea plants colonized with approximately 100 to 150 aphids of various stages were sprayed after the pest population had been recorded. Population reduction was assessed after 24, 72, and 120 hours.

[5] = test system: Silverleaf Whitefly (Bemisia Argentifolii); conditions: 72 h, sprayed cotton plants, whitefly adults, 3 days after treatment, read-out: mortality in comparison with untreated controls
Procedure: as §1, with “10,000” for “10′ 000”
Cotton plants at the cotyledon stage (one plant per pot) were sprayed by an automated electrostatic plant sprayer equipped with an atomizing spray nozzle. The plants were dried in the sprayer fume hood and then removed from the sprayer. Each pot was placed into a plastic cup and 10 to 12 whitefly adults (approximately 3 to 5 days old) were introduced. The insects were collected using an aspirator and 0.6 cm, nontoxic Tygon® tubing (R-3603) connected to a barrier pipette tip. The tip, containing the collected insects, was then gently inserted into the soil containing the treated plant, allowing insects to crawl out of the tip to reach the foliage for feeding. Cups were covered with a reusable screened lid (150-micron mesh polyester screen PeCap from Tetko, Inc.). […] Mortality was assessed 3 days after treatment, compared to untreated control plants.

CON=Cc1cccc(-c2cnc(-c3cccnc3)s2)n1 [Compound 1-1, 6-(2-Pyridin-3-yl-thiazol-5-yl)-pyridine-2-carbaldehyde-O-methyloxime]
≥ 75%: mortality at 800 ppm [1] | mortality at 800 ppm [2] | mortality at 300 ppm [3] | mortality at 300 ppm [4] | mortality at 300 ppm [5]

C(=NOc1ccccc1)c1cccc(-c2cnc(-c3cccnc3)s2)n1 [Compound 1-10, 6-(2-Pyridin-3-yl-thiazol-5-yl)-pyridine-2-carbaldehyde-O-phenyloxime]
≥ 75%: mortality at 800 ppm [1] | mortality at 300 ppm [4]

From patent US20150368236A1, “2-(PYRIDIN-3-YL)-5-HETARYL-THIAZOLE COMPOUNDS CARRYING AN IMINE OR IMINE-DERIVED SUBSTITUENT FOR COMBATING INVERTEBRATE PESTS” (BASF SE, priority 2012, published 2015)
